Test results published in the NIST ThermoML archive (doi:10.1016/j.jct.2006.05.008).

Test: molar heat capacity at constant pressure; wn = mass fraction of the nth substance listed
Conditions: Small (less than 1 g) adiabatic calorimetry

CCCCn1cc[n+](C)c1.[Br-] [1-butyl-3-methylimidazolium bromide] + O
Conditions | molar heat capacity at constant pressure [J/K/mol]
152.96 K, 101.3 kPa, Glass, w2 = 0.00482 | 151.04
155.53 K, 101.3 kPa, Glass, w2 = 0.00482 | 152.59
158.09 K, 101.3 kPa, Glass, w2 = 0.00482 | 154.17
160.66 K, 101.3 kPa, Glass, w2 = 0.00482 | 155.77
163.24 K, 101.3 kPa, Glass, w2 = 0.00482 | 157.38
165.81 K, 101.3 kPa, Glass, w2 = 0.00482 | 158.96
168.39 K, 101.3 kPa, Glass, w2 = 0.00482 | 160.57
170.97 K, 101.3 kPa, Glass, w2 = 0.00482 | 162.11
173.55 K, 101.3 kPa, Glass, w2 = 0.00482 | 163.78
176.13 K, 101.3 kPa, Glass, w2 = 0.00482 | 165.35
178.71 K, 101.3 kPa, Glass, w2 = 0.00482 | 167.03
181.3 K, 101.3 kPa, Glass, w2 = 0.00482 | 168.7
183.89 K, 101.3 kPa, Glass, w2 = 0.00482 | 170.41
186.48 K, 101.3 kPa, Glass, w2 = 0.00482 | 172.04
189.06 K, 101.3 kPa, Glass, w2 = 0.00482 | 173.78
191.65 K, 101.3 kPa, Glass, w2 = 0.00482 | 175.6
194.25 K, 101.3 kPa, Glass, w2 = 0.00482 | 177.44
196.84 K, 101.3 kPa, Glass, w2 = 0.00482 | 179.31
199.44 K, 101.3 kPa, Glass, w2 = 0.00482 | 181.34
201.78 K, 101.3 kPa, Glass, w2 = 0.00482 | 183.39
203.87 K, 101.3 kPa, Glass, w2 = 0.00482 | 185.23
205.95 K, 101.3 kPa, Glass, w2 = 0.00482 | 187.63
208.05 K, 101.3 kPa, Glass, w2 = 0.00482 | 190.57
209.63 K, 101 kPa, Liquid, w2 = 0.0495 | 190.63
210.13 K, 101.3 kPa, Glass, w2 = 0.00482 | 194.11
211.86 K, 101 kPa, Liquid, w2 = 0.0495 | 190.98
212.18 K, 101.3 kPa, Glass, w2 = 0.00482 | 199.24
213.95 K, 101 kPa, Liquid, w2 = 0.0495 | 191.32
214.19 K, 101.3 kPa, Glass, w2 = 0.00482 | 209.18
216.04 K, 101 kPa, Liquid, w2 = 0.0495 | 191.7
216.1 K, 101.3 kPa, Glass, w2 = 0.00482 | 229.46
218.13 K, 101 kPa, Liquid, w2 = 0.0495 | 191.97

Crystal
Conditions | molar heat capacity at constant pressure [J/K/mol]
153.47 K, w2 = 0.00482 | 140.32
154 K, w2 = 0.0495 | 102.07
154.55 K, w2 = 0.0169 | 127.32
154.86 K, w2 = 0.0051 | 140.76
156.05 K, w2 = 0.00482 | 141.71
156.62 K, w2 = 0.0169 | 128.46
156.86 K, w2 = 0.0495 | 103.54
157.46 K, w2 = 0.0051 | 142.19
158.64 K, w2 = 0.00482 | 143.05
158.69 K, w2 = 0.0169 | 129.54
159.72 K, w2 = 0.0495 | 105.03
160.06 K, w2 = 0.0051 | 143.6
160.76 K, w2 = 0.0169 | 130.58
161.22 K, w2 = 0.00482 | 144.52
162.58 K, w2 = 0.0495 | 107.12
162.67 K, w2 = 0.0051 | 145.04
162.83 K, w2 = 0.0169 | 131.81
163.81 K, w2 = 0.00482 | 145.98
164.91 K, w2 = 0.0169 | 133.35
165.35 K, w2 = 0.0051 | 146.89
165.42 K, w2 = 0.0495 | 110.43
166.4 K, w2 = 0.00482 | 147.42
166.98 K, w2 = 0.0169 | 135.28
167.95 K, w2 = 0.0051 | 148.6
168.2 K, w2 = 0.0495 | 119.37
168.99 K, w2 = 0.00482 | 148.99
169.05 K, w2 = 0.0169 | 138.58
170.54 K, w2 = 0.0051 | 150.98
170.84 K, w2 = 0.0495 | 133.87
171.1 K, w2 = 0.0169 | 143.34
171.58 K, w2 = 0.00482 | 150.69
173.12 K, w2 = 0.0051 | 153.72
173.15 K, w2 = 0.0169 | 146.3
173.43 K, w2 = 0.0495 | 137.89
174.17 K, w2 = 0.00482 | 152.56
175.22 K, w2 = 0.0169 | 148.17
175.7 K, w2 = 0.0051 | 155.58
176.02 K, w2 = 0.0495 | 137.25
176.76 K, w2 = 0.00482 | 154.52
177.3 K, w2 = 0.0169 | 149.6
178.27 K, w2 = 0.0051 | 157.05
178.63 K, w2 = 0.0495 | 136.83
179.35 K, w2 = 0.00482 | 156.32
179.39 K, w2 = 0.0169 | 150.75
180.85 K, w2 = 0.0051 | 158.5
181.26 K, w2 = 0.0495 | 136.85
181.47 K, w2 = 0.0169 | 151.73
181.94 K, w2 = 0.00482 | 158.09
182.13 K, w2 = 0.0495 | 137.03
183.43 K, w2 = 0.0051 | 159.93
183.55 K, w2 = 0.0169 | 152.69
183.89 K, w2 = 0.0495 | 137.25
184.55 K, w2 = 0.00482 | 159.97
184.8 K, w2 = 0.0495 | 137.33
185.63 K, w2 = 0.0169 | 153.62
186 K, w2 = 0.0051 | 161.23
186.52 K, w2 = 0.0495 | 137.88
187.15 K, w2 = 0.00482 | 161.48
187.43 K, w2 = 0.0495 | 137.82
187.72 K, w2 = 0.0169 | 154.64
188.57 K, w2 = 0.0051 | 162.67
189.16 K, w2 = 0.0495 | 138.51
189.75 K, w2 = 0.00482 | 163.1
189.81 K, w2 = 0.0169 | 155.65
190.07 K, w2 = 0.0495 | 138.44
191.13 K, w2 = 0.0051 | 164.05
191.82 K, w2 = 0.0495 | 139.23
191.89 K, w2 = 0.0169 | 156.63
192.35 K, w2 = 0.00482 | 164.66
192.72 K, w2 = 0.0495 | 139.22
193.7 K, w2 = 0.0051 | 165.5
193.98 K, w2 = 0.0169 | 157.56
194.48 K, w2 = 0.0495 | 139.88
194.95 K, w2 = 0.00482 | 166.1
195.38 K, w2 = 0.0495 | 139.99
196.08 K, w2 = 0.0169 | 158.61
196.26 K, w2 = 0.0051 | 166.89
197.16 K, w2 = 0.0495 | 140.43
197.55 K, w2 = 0.00482 | 167.55
198.05 K, w2 = 0.0495 | 140.75
198.17 K, w2 = 0.0169 | 159.59
198.82 K, w2 = 0.0051 | 168.3
200.15 K, w2 = 0.00482 | 169
200.26 K, w2 = 0.0169 | 160.53
200.73 K, w2 = 0.0495 | 141.5
201.38 K, w2 = 0.0051 | 169.66
202.36 K, w2 = 0.0169 | 161.49
202.75 K, w2 = 0.00482 | 170.67
203.43 K, w2 = 0.0495 | 142.32
203.93 K, w2 = 0.0051 | 171.24
204.46 K, w2 = 0.0169 | 162.5
205.36 K, w2 = 0.00482 | 172.16
206.48 K, w2 = 0.0051 | 172.9
206.55 K, w2 = 0.0169 | 163.54
207.97 K, w2 = 0.00482 | 173.71
208.05 K, w2 = 0.0495 | 144.92
208.65 K, w2 = 0.0169 | 164.5
209.03 K, w2 = 0.0051 | 175.02
210.59 K, w2 = 0.00482 | 175.21
210.75 K, w2 = 0.0495 | 151.13
210.77 K, w2 = 0.0169 | 165.47
211.56 K, w2 = 0.0051 | 176.7
212.87 K, w2 = 0.0169 | 166.55
213.21 K, w2 = 0.00482 | 176.73
213.38 K, w2 = 0.0495 | 150.25
214.1 K, w2 = 0.0051 | 177.3
214.97 K, w2 = 0.0169 | 167.69
215.83 K, w2 = 0.00482 | 178.25
215.99 K, w2 = 0.0495 | 154.67
216.64 K, w2 = 0.0051 | 178.89
216.82 K, w2 = 0.00482 | 178.65
217.07 K, w2 = 0.0169 | 169.05
217.64 K, w2 = 0.0169 | 168.8
